Source: US20060014642A1, “Herbicidal compositions” (Bayer CropScience GmbH, priority 2004, published 2006)

Legend:
Type in all cases: in vivo
[1] = test system: Poa trivialis; assay: Outdoor trial, post-emergence herbicidal action against Poa trivialis
Procedure: (§1) The herbicidal efficacy of the active compounds or active compound mixtures was scored visually by comparing the treated pots (soil) with untreated controls. The damage and development of all above-ground plant parts was recorded. Scoring was done on a percentage scale (100% action=all plants dead or not emerged; 50% action=50% of the plants and green plant parts dead or not emerged; 0% action=no discernible action=like control plot). The score figures of in any case 4 repetitions (pots) were averaged.
(§2) Seeds or rhizome pieces of monocotyledonous and dicotyledonous weeds are placed in sandy loam in pots, covered with soil and grown in the greenhouse under good growth conditions (temperature, atmospheric humidity, water supply). Three weeks after sowing, the test plants are treated in the three-leaf stage with the compositions according to the invention. The compositions according to the invention, formulated as wettable powders or emulsion concentrates, are sprayed onto the green plant parts in various dosages using an application rate of 300 to 800 l of water/ha (converted). After the test plants have remained in the greenhouse under optimum growth conditions for about 3 to 4 weeks, the effect of the preparations is scored visually in comparison with untreated controls (scoring as in Example 1). […]

[2] = test system: Festuca rubra; assay: Outdoor trial, post-emergence herbicidal action against Festuca rubra
Procedure: as §1, §2

[3] = test system: Lolium multiflorum; assay: Outdoor trial, post-emergence herbicidal action against Lolium multiflorum; conditions: application at the 2-5-leaf stage (post-emergence), evaluation 55 days after treatment
Procedure: as §1
Seeds or rhizome pieces of monocotyledonous and dicotyledonous weeds are placed in sandy loam in pots, covered with soil and grown in the greenhouse under good growth conditions (temperature, atmospheric humidity, water supply). Three weeks after sowing, the test plants are treated in the three-leaf stage with the compositions according to the invention. The compositions according to the invention, formulated as wettable powders or emulsion concentrates, are sprayed onto the green plant parts in various dosages using an application rate of 300 to 800 l of water/ha (converted). After the test plants have remained in the greenhouse under optimum growth conditions for about 3 to 4 weeks, the effect of the preparations is scored visually in comparison with untreated controls (scoring as in Example 1). The compositions according to the invention also have good herbicidal post-emergence action against a broad spectrum of economically important weed grasses and broad-leaf weeds.
Corresponding to the greenhouse experiments of sections 1 and 2, the tests were carried out in the open on plots. Scoring was carried out analogously to the tests in sections 1 and 2.
Certain combinations were tested for their herbicidal activity in accordance to the general example in section 3 in combination with section 2 (post-emergence method).

[4] = 600 g of AS/ha, application at stage 21, evaluation 35 days after treatment
[5] = 200 g of AS/ha, application at stage 21 of the harmful plants, evaluation 35 days after treatment

## CP(=O)(O)CCC(N)C(=O)O (racemic) [(B2.1.1.1), 4-[hydroxy(methyl)phosphinoyl]-DL-homoalanine, reference compound]
[1]; [4]
  Herbicidal action [%] against Poa trivialis: 88%
[2]; [4]
  Herbicidal action [%] against Festuca rubra: 87%

## O=C(O)CNCP(=O)(O)O [(B2.1.2.1), N-(phosphonomethyl)glycine, reference compound]
[3]; 1080 g of AS/ha
  Herbicidal action [%] against Lolium multiflorum: 18%

## Cc1ccc2c(c1)[C@H](Nc1nc(N)nc([C@@H](C)F)n1)CC2 [(A11), 2-amino-4-[(1R)-6-methylindan-1-ylamino]-6-[(1R)-1-fluoroethyl]-1,3,5-triazine]
[1]; [5]
  Herbicidal action [%] against Poa trivialis: 0%
[2]; [5]
  Herbicidal action [%] against Festuca rubra: 0%
[3]; 200 g of AS/ha
  Herbicidal action [%] against Lolium multiflorum: 20%
[3]; 300 g of AS/ha
  Herbicidal action [%] against Lolium multiflorum: 50%
